Experimental findings from US12440475B2, “Hodgkin lymphoma therapy” (priority 2016, dated 2025) are described below.

Each structure is given as a SMILES string. “And” between values parts separate entries of the source, which are not always exact repeats. Equal values may be shown once.

The test system of series [1] is L428 cells. The series can be described thus: Orbital tumour mass at injection site in xenografted NSG mice. It is filed as in vivo. The following applies: after EDO-S101 injection. The source says:
(§1) Immunodeficient NOD-SCID-gammac−/− (NSG) mice aged 5 to 6 weeks were purchased from Charles River (NOD.Cg-Prkdcscid II2rgtm1Wjl/SzJ). The mice arrived two weeks before the beginning of the experiments and were housed in micro-isolator cages during the entire course of the study. Immediately prior to the injection of Hodgkin lymphoma cells, mice were exposed to 3 Gy gamma irradiation using an IBL637 ^137Cs irradiator at a dose rate of 0.61 Gy/min. From 10^3 to 10^6 cells, either from the original cell lines or following amplification, were injected intravenously via the retro-orbital sinus. The mice were sacrificed by cervical dislocation and different organs were analysed and tumoural infiltration examined using multiple techniques.
(§2) Two independent experiments were performed to investigate the dose-effect of EDO-S101 in NSG mice eight weeks after xenografting with L428 cells as in Example 8. The aim of the protocol shown in FIG. 8B was to evaluate the effect of sequential treatment with a moderate dose of 60 mg/kg given at an interval of three weeks.
Some mice developed an orbital tumour mass at the site of the injection. […] In one mouse only that was treated with two doses of 60 mg/kg of EDO-S101, a regression of the orbital tumour was initially observed followed by re-establishment of the orbital mass 3 weeks later. […]

A further series has as its system L540. The series can be described thus: Apoptosis by annexin V-FITC and Hoechst double staining, L540. The format is cell-based, human. The following applies: 5 μM, 24 h and 48 h. As for the experimental part: (§3) This assay was performed on 7 cell lines (HDLM2 was excluded due to the low number of available cells) at 24 h and 48 h following EDO-S101 treatment (5 μM, DMSO). Control cells were cultured in the same final concentration of DMSO. Only viable cells (using Hoechst staining) were focused on, and all necrotic cells were excluded. Apoptosis was determined using annexin V-FITC and Hoechst (33342) double staining according to the manufacturer's instructions (BD Biosciences). Cell-cycle fractions were determined by Hoechst nuclear staining. Briefly, cells were harvested, washed in PBS, incubated with annexin V-FITC and Hoechst solution for 30 minutes at room temperature. Data were collected using a FACSCalibur flow cytometer (BD Biosciences) and analyzed with FlowJo Version 7.5.5 obtainable from FlowJo, LLC. Results represent the mean value of 3 independent experiments.

Series [2] concerns L428 cells. Put plainly: Cytogenetic analysis of cells from xenografted mice. It is filed as in vivo, NSG mice. The following applies: different doses, including a single dose of 60 mg/kg. As for the experimental part:
Separated cells were cultured in the presence of RPMI 1640 supplemented with 10% Fetal Calf Serum (FCS) and antibiotics, colcemid (0.1 μg/ml) added 2 h before harvesting, and the slides with metaphase chromosomes prepared following the standard methanol/acetic acid (3/1, v/v) procedure.
Four new cell lines were generated after one month of in vitro culture following 24 hour of exposure to EDO-S101. Fluorescence in situ hybridysation (FISH) was performed using a combination of standard procedures from the recommended protocols for chromosomal analysis, following telomere and centromere staining, using peptide nucleic acid (PNA) probes in order to detect unstable chromosomal aberrations and to delimit the chromosome territory. M-FISH was performed using multi-FISH probes (Metasystems GmbH, Altlussheim, Germany), according to the manufacturer's recommendations on the same slide. Images of hybridized metaphases were captured using a charge coupled device camera (Zeiss, Thornwood, NY) coupled to a Zeiss Axioplan microscope and processed using ISIS software (Metasystems).
The ocular tumour masses were harvested, as well as cells which infiltrated the liver. Five new cell lines were established from ocular tumours and the livers of both control mice (PBS or vehicle). […]

Series [3] deals with Hodgkin lymphoma cell lines. The series can be described thus: Apoptosis by annexin V-FITC and Hoechst double staining, 7 cell lines. The format is cell-based, human. The following applies: 5 μM; 24 h and 48 h; all cells. How it is done: as §3
Series [4] is described as follows: Histopathology of non-tumour findings (lung, spleen) in xenografted NSG mice. It is filed as in vivo. More on the design: key: 0: within physiological limits; 1: minimal; 2: mild; 3: moderate; 4: marked; 5: severe. How it is done:
(§4) Organs were fixed in 4% PFA, trimmed and post-fixed in 70° ethanol. They were then briefly processed using a vacuum inclusion processor and paraffin blocks were prepared. Five micrometer-thick sections were cut from these blocks and the resulting sections were stained with hemotoxylin-eosine (H&E) for histopathological analysis. In addition, IHC was carried out on of the totality of liver and spleen specimens for confirmation of the spread of engrafted cells. The search for single cells or small groups of grafted Hodgkin lymphoma cells was performed using an anti-CD30 antibody (DAKO, France; 1:40, EDTA pH9 pre-treatment) and the Ventana Discovery XT IHC system. Apoptosis and tumour necrosis were analysed.
(§5) Microscopic findings were assigned a severity score based upon the following scale: “0”=within physiological limits, “1”=minimal, “2”=mild, “3”=moderate, “4”=marked, “5”=severe. This severity score was attributed according to the size and number of observed lesions.

The next series concerns R100. The series can be described thus: ATM/ATR transcripts, R100. It is filed as cell-based, human. The following applies: bendamustine resistant R100; EDO-S101 alone.
In series [5] the test system is L428 cells. The series can be described thus: L428 xenograft in NSG mice, histopathology (HE staining and CD30 immunohistochemistry). It is filed as in vivo. Also on record: key to Liver, Tumor cell infiltration, focal/multifocal (score per animal) / Liver, Tumor cell necrosis/Apoptosis (score per animal) / Eye and/or periocular mucosa, periocular tumor cell infiltration, focal/multifocal/diffuse (score per animal) / Tumor/Eye, Tumor cell necrosis/appotosis (score per animal): 0: within physiological limits; 1: minimal; 2: mild; 3: moderate; 4: marked; 5: severe.
Description: as §1, §2
The mice were sacrificed by cervical dislocation. The sampled organs consisted of the eyes (site of injection), liver, spleen and bone marrow. Following dissection of different organs, including tumours, the first portion was used for flow cytometry (FACS) and cytogenetic analyses while the second was fixed in 4% paraformaldehyde (PFA) for immunohistochemistry (IHC). To obtain a single cell suspension, the tissues were first cut into pieces. Thereafter, the cells were physically disaggregated using an 80 μm nylon cell strainer and filtered a second time through a 70 μm nylon cell strainer (BD Biosciences, Erembodegem, Belgium).
as §4, §5

Take `Cn1c(CCCCCCC(=O)NO)nc2cc(N(CCCl)CCCl)ccc21` [EDO-S101]: the “orbital tumour mass at site of injection” value in the series with L428 cells [1] is given as “signification regression”. Besides, the sensitivity for apoptosis entry in the series on L540 is on record as “higher sensitivity”; in series [3] it was “high sensitivity”. Besides, in the series on L428 cells [2], the “metaphases and cell lines from cells of treated mice” value was “not possible to obtain either metaphases from direct culture or establish cell lines”. Besides, the “Lung, alveolar histiocytosis (score per animal)” value in series [4] (1*60 mg/kg) and in series [4] (1*80 mg/kg) was 1 each time. Moreover, the “Spleen, red pulp activation, diffuse (score per animal)” value in series [4] (2*60 mg/kg) is listed as 3. Further, the ATM/ATR transcripts result in the series on R100 was “correct the constitutive ATM/ATR unbalance by upregulating ATR and downregulating ATM transcripts”. In addition, the “tumour masses in liver” value with L428 cells [5] (80 mg/kg) was “No tumour masses were observed in the liver”. For the same molecule, in the series with L428 cells [5] (80 mg/kg or 60 mg/kg), the “tumour cell degeneration (necrosis/apoptosis)” value is “No cell necerosis was observed”. In addition, the “Eye and/or periocular mucosa, periocular tumor cell infiltration, focal/multifocal/diffuse (score per animal)” value was 5 and 4 (2×) and 3 with L428 cells [5] (1*60 mg/kg, 60 mg/kg); 5 in the series with L428 cells [5] (1*80 mg/kg); 4 in the series with L428 cells [5] (2*60 mg/kg). Moreover, the “Liver, Tumor cell infiltration, focal/multifocal (score per animal)” value in the series with L428 cells [5] (1*60 mg/kg, 60 mg/kg) was 2 and 1 and 3; in the series on L428 cells [5] (2*60 mg/kg, 60 mg/kg), 1 (3×) and 0 and 2. Moreover, the “Tumor/Eye, Tumor cell necrosis/appotosis (score per animal)” value in the series with L428 cells [5] (1*60 mg/kg, 60 mg/kg) was 0 (2×) and 1 (2×); with L428 cells [5] (1*80 mg/kg) it was 1; with L428 cells [5] (2*60 mg/kg, 60 mg/kg), 4 and 2 (2×). In the series on L428 cells [5] (2*60 mg/kg), the “Liver, Tumor cell necrosis/Apoptosis (score per animal)” value came out at 0. For the same molecule, the “Tumor tissue, without connection to other organs (per animal)” value with L428 cells [5] (2*60 mg/kg) is “yes”. Besides, the tumour regression entry is “significant tumour regression” with L428 cells [5] (single dose of 60 mg/kg); “Significant tumour regression” in the series on L428 cells [5] (two administrations of 60 mg/kg three weeks apart, versus control and single 60 mg/kg). Also, the “severity of tumoural cell infiltration” value with L428 cells [5] (single injection 60 or 80 mg/kg, or two injections of 60 mg/kg three weeks apart) is reported as “significant decrease in the severity of tumoural cell infiltration”.
